Laboratory results published in publication PMC12247152, “Nature‐Inspired Compounds Targeting Escherichia coli WrbA as Biofilm‐Modulating Agents: Computational Design, Synthesis, and Biological Evaluation” (Archiv Der Pharmazie, 2025).

Target: T1, WrbA (Escherichia coli, UniProt P0A8G6)
T1 construct: recombinant WrbA protein
Assay: microscale thermophoresis (MST)
Type: binding
Conditions: read-out: K d ± confidence

T1 sequence (P0A8G6 2-198): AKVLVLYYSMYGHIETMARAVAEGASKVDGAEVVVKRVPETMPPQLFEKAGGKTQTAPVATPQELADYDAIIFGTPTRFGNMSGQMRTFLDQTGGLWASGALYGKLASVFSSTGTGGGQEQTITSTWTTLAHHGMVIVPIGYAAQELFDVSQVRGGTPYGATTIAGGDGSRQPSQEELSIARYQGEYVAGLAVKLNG

Question: `CC1(C)CC(=O)c2c(O)cc(OCC(N)=O)cc2O1` [1a, 2‐[(5‐Hydroxy‐2,2‐dimethyl‐4‐oxochroman‐7‐yl)oxy]acetamide] was tested. Which Kd did it give?
Answer: 18.7 ± 6.3 µM

Question: `CC1(C)CC(=O)c2c(O)cc(OCC(=O)NCCNCc3ccccc3)cc2O1` [1c, N‐[2‐(Benzylamino)ethyl]‐2‐[(5‐hydroxy‐2,2‐dimethyl‐4‐oxochroman‐7‐yl)oxy]acetamide] was tested. Which Kd did it give?
Answer: 1.4 ± 0.7 µM

Question: Which Kd does the source give for `CC1(C)CC(=O)c2c(O)cc(OCC(=O)NCc3cccc(Cl)c3)cc2O1` [1d, N‐(3‐Chlorobenzyl)‐2‐[(5‐hydroxy‐2,2‐dimethyl‐4‐oxochroman‐7‐yl)oxy]acetamide] here?
Answer: 5 ± 1.8 µM

Question: How did the Kd turn out when `CC1(C)CC(=O)c2c(O)cc(OCC(=O)NCc3cccc4ccccc34)cc2O1` [1e, 2‐[(5‐Hydroxy‐2,2‐dimethyl‐4‐oxochroman‐7‐yl)oxy]‐N‐(naphthalen‐1‐ylmethyl)acetamide] was run?
Answer: 2.1 ± 1.3 µM
